Patent US9045472B2, “Imidazoquinoline compounds” (ASTRAZENECA AB, priority 2010, dated 2015)

Columns and labels:
[1] = Cynomolgous monkey plasma stability; type: in vitro ADME; conditions: 37° C., 1 μM final incubation concentration, parent compound by LC-MS-MS
Method: Cynomolgous Monkey Plasma Stability
(§1) To determine the half life of the test compound in cynomolgous monkey plasma, incubations were performed at 37° C. in a shaking water bath. The test compound (5 μL of a 100 μM stock in MeCN) was spiked into 0.495 mL plasma to give a final incubation concentration of 1 μM. Aliquots (50 μL) were withdrawn at various time points (typically 0, 20 and 40 sec, 1, 2, 3, 5 and 10 mins) and quenched into MeCN (300 μL) followed by analysis for parent compound by LC-MS-MS (MRM mode). The half life was calculated from the decline of test compound peak area over time

Human plasma stability = type: in vitro ADME; conditions: 37° C., 1 μM final incubation concentration, parent compound by LC-MS-MS
Method: as §1, with “in human” for “in cynomolgous monkey”, “bath. Compound” for “bath. The test compound”, “over time.” for “over time”

human TLR7 = biological target: T1, human TLR7 (Homo sapiens, UniProt Q9NYK1); assay: Human TLR7 assay (SEAP reporter in HEK293 cells); type: cell-based; conditions: HEK293 cell line expressing recombinant human TLR7 and pNiFty2-SEAP reporter; overnight incubation at 37° C., 0.1% DMSO; read-out: mean pEC50 (concentration producing half of the maximal level of SEAP induction) (converted)
T1 construct: expressed in transfected cells; host or cells: HEK293 cell line stably expressing the pNiFty2-SEAP reporter plasmid; TLR7 in pUNO vector, blasticidin selection
T1 sequence (Q9NYK1 27-1049): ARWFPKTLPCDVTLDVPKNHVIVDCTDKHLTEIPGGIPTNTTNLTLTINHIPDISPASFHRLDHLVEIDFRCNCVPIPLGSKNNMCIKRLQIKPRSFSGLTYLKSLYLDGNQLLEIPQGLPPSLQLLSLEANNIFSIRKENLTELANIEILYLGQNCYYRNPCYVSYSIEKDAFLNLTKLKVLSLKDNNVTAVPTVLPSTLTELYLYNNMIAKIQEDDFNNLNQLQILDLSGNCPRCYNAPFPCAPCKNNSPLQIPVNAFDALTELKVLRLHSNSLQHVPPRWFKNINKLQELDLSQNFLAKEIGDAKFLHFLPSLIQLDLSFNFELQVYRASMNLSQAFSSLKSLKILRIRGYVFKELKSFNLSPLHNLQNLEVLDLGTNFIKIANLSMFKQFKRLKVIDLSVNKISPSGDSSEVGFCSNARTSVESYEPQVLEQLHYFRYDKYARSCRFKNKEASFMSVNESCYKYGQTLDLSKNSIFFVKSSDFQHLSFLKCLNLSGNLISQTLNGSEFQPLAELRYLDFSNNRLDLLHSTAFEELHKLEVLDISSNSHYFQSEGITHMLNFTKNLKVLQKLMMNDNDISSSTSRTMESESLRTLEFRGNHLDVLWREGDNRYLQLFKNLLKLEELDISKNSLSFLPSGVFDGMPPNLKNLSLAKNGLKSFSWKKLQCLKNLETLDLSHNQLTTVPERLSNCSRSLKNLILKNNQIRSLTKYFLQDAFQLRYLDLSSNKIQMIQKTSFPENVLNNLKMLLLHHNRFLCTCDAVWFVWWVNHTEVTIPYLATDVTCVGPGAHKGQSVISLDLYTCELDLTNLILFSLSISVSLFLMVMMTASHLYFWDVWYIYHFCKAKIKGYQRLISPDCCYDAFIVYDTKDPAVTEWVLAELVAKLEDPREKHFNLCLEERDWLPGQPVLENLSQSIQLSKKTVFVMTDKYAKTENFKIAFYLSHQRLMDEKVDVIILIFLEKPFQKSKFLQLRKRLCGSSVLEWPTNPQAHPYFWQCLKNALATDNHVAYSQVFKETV
Source text: Recombinant human TLR7 was stably expressed in a HEK293 cell line already stably expressing the pNiFty2-SEAP reporter plasmid; integration of the reporter gene was maintained by selection with the antibiotic zeocin. The most common variant sequence of human TLR7 (represented by the EMBL sequence AF240467) was cloned into the mammalian cell expression vector pUNO and transfected into this reporter cell-line. Transfectants with stable expression were selected using the antibiotic blasticidin. In this reporter cell-line, expression of secreted alkaline phosphatase (SEAP) was controlled by an NFkB/ELAM-1 composite promoter comprising five NFkB sites combined with the proximal ELAM-1 promoter. TLR signaling leads to the translocation of NFkB and activation of the promoter results in expression of the SEAP gene. TLR7-specific activation was assessed by determining the level of SEAP produced following overnight incubation of the cells at 37° C. with the test compound prepared above in the presence of 0.1% (v/v) dimethylsulfoxide (DMSO). Concentration dependent induction of SEAP production by compounds was expressed as the concentration of compound which produced half of the maximal level of SEAP induction for that compound (pEC50).

[2] = Gravimetric Vapour Sorption (GVS); type: physicochemical
Method: Gravimetric Vapour Sorption (GVS) profiles were measured using a TA Instruments Q5000SA instrument. Approximately 1 mg to 5 mg of the solid sample was placed into a metal vessel, and the weight of the sample was recorded during a dual cycle step method (40 to 90 to 0 to 90 to 0% relative humidity (RH), in steps of 10% RH).

SMILES	half-life at 1 μM [1] [min]	half-life at 1 μM (Human plasma stability) [min]	EC50 (human TLR7) [nM]	mass increase at 80% relative humidity, cycle 1 ([2]; cycle 1) [%]	mass increase at 80% relative humidity, cycle 2 ([2]; cycle 2) [%]
CCOCc1nc2c(N)nc3ccccc3c2n1CCCN(Cc1cccc(CC(=O)OC)c1)C(=O)CN(C)C [Comparative Example 1, Methyl 2-(3-((N-(3-(4-amino-2-(ethoxymethyl)-1H-imidazo[4,5-c]quinolin-yl)propyl)-2-(dimethylamino)acetamido)methyl)phenyl)acetate, reference compound]	11	0.7			
CCOCc1nc2c(N)nc3ccccc3c2n1CCCCN(Cc1cccc(CC(=O)OC)c1)C(=O)CN(CC)CC [Compound (I), Methyl (3-{[{4-[4-amino-2-(ethoxymethyl)-1H-imidazo[4,5-c]quinolin-1-yl]butyl}(N,N-diethylglycyl)amino]methyl}phenyl)acetate]	1.2	0.3	39.8	0.5	0.64
